{"source": "patent US5494932A", "about": "“Sulfonic stilbene derivatives in the treatment of viral disease” (Merrell Dow Pharmaceuticals Inc., priority 1991, dated 1996)", "key": {"[1]": {"test_system": "HIV-1 strain GB8 in JM cells", "experiment": "Acute HIV-1 (GB8) infection of JM cells: syncytial counts and p24 antigen", "type": "cell-based, HIV-1 (human T cell line JM)", "settings": "for Mean Syncytial Counts: at day 4 p.i.", "description": "When evaluated in the human T cell line JM acutely infected with the GB8 virus, DIDS, H2 DIDS and SITS (Table I) suppressed virus-induced multinucleated giant cell formation (syncytia). […] We also examined the antiviral properties of these compounds in a second host-cell/virus system, i.e., the highly CD4+ C8166 cells infected with the Haitian strain of HIV-1, RF.\nThe cell lines used were the semi-mature human lymphoblastoid leukemia T cell line JM, the human T-lymphoblastoid C8166 cell line, the human cutaneous T cell lymphoma line H9 and, the human T cell transformed line MT-4. Stocks of HIV-1 strains RF and GB8 (kindly provided by Dr. Graham Farrar, Center for Applied Microbiological Research, Porton Dawn, England) were prepared from chronically infected H9 cells and acutely infected JM cells, respectively. Virus stocks consisted of cell-free growth medium (RPMI 1640 plus 10% fetal calf serum) containing freshly shed virus. Virus titres were determined by a standard plaque reduction assay.\nVirus stocks (strains RF or GB8) were diluted into growth medium containing various concentrations of DIDS, H2 DIDS or SITS. The required number of cells were then immediately added and the virus allowed to absorb for 2 hours at 37° C. to give a multiplicity of infection (MOI) of 0.001 infectious units/cell. The virus-infected cells were pelleted, washed three times in phosphate buffered saline (PBS), and resuspended in fresh growth medium containing the appropriate concentrations of stilbene disulfonic acids. Cells were then distributed into 24-well culture plates (Falcon) and assayed as described below for virus infection. Alternatively, cells were first infected with HIV-1 (strains RF or GB8) for 2 hours at 37° C. at the above MOI. After extensive washing, cells were replated into fresh growth medium containing various concentrations of stilbene disulfonic acids. In the above experiments, syncytia were scored between 2 and 4 days postinfection (p.i.) in triplicate using an Olympus CK2 inverted microscope. The culture fluids were recovered between 3 and 5 days p.i., clarified by low speed centrifugation (2,000 rpm) for 5 minutes and the level of HIV-1 p24 core antigen in the supernatants was determined by p24 antigen ELISA (Coulter). The concentrations of stilbene disulfonic acids giving 50% inhibition of HIV-1 growth (IC50) were determined from the dose-response curves by linear regression analysis.\nProtocol: JM cells were infected with HIV-1 to give a multiplicity of infection of 0.001. Virus adsorption was for 2 hours at room temperature. The cells were washed and distributed into wells containing different concentrations of test compounds and incubated. After 2 days the cells were observed and syncytia were counted. The cell-free supernatant fluids were harvested at 4 and 6 days post infection and assayed for levels of p24 viral core antigen and after 6 days the supernatants were also titrated to determine levels of infectivity."}, "HSV 2": {"test_system": "HSV 2", "experiment": "Plaque reduction assay, HSV 2", "type": "cell-based", "description": "Protocol: Plaque reduction assay. Treatment after adsorption during incubation."}}, "note": "Where two headings read alike, the source gives them in different places."}
{"smiles": "O=S(=O)(O)c1cc(N=C=S)ccc1CCc1ccc(N=C=S)cc1S(=O)(=O)O", "note": "[H2 DIDS, 4,4'-diisothiocyanatodihydrostilbene-2,2'-disulfonic acid]", "values": [{"measurement": "Mean Syncytial Counts 2 Days p.i.", "setting": "[1]; 3 μg/ml", "value": 107}, {"measurement": "Mean Syncytial Counts", "setting": "[1]; 6 μM", "value": 107}, {"measurement": "Mean Syncytial Counts 2 Days p.i.", "setting": "[1]; 6 μg/ml", "value": 97}, {"measurement": "Mean Syncytial Counts", "setting": "[1]; 12 μM", "value": 97}, {"measurement": "Mean Syncytial Counts 2 Days p.i.", "setting": "[1]; 12.5 μg/ml", "value": 71}, {"measurement": "p24 4 days p.i.", "setting": "[1]; 12.5 μg/ml", "value": 94000, "unit": "pg/mL"}, {"measurement": "p24 6 days p.i.", "setting": "[1]; 12.5 μg/ml", "value": "8.51 × 10^6 pg/m."}, {"measurement": "Mean Syncytial Counts", "setting": "[1]; 25 μM", "value": 71}, {"measurement": "Mean Syncytial Counts 2 Days p.i.", "setting": "[1]; 25 μg/ml", "value": 7}, {"measurement": "p24 4 days p.i.", "setting": "[1]; 25 μg/ml", "value": 32000, "unit": "pg/mL"}, {"measurement": "p24 6 days p.i.", "setting": "[1]; 25 μg/ml", "value": "2.66 × 10^6 pg/m."}, {"measurement": "Mean Syncytial Counts", "setting": "[1]; 50 μM", "value": 7}, {"measurement": "Mean Syncytial Counts 2 Days p.i.", "setting": "[1]; 50 μg/ml", "value": 0}, {"measurement": "p24 4 days p.i.", "setting": "[1]; 50 μg/ml", "value": 70, "unit": "pg/mL"}, {"measurement": "p24 6 days p.i.", "setting": "[1]; 50 μg/ml", "value": "3.77 × 10^2 pg/m."}, {"measurement": "Mean Syncytial Counts", "setting": "[1]; 100 μM", "value": 0}, {"measurement": "Mean Syncytial Counts 2 Days p.i.", "setting": "[1]; 100 μg/ml", "value": 0}, {"measurement": "p24 6 days p.i.", "setting": "[1]; 100 μg/ml", "value": "6.48 × 10^2 pg/m."}, {"measurement": "Mean Syncytial Counts", "setting": "[1]; 200 μM", "value": 0}, {"measurement": "activity at 50 µg/mL", "setting": "[1]; Human immunodeficiency virus 1, 96 h, read-out: p24 4 days p.i., % Control", "value": 0.01, "unit": "%"}, {"measurement": "activity at 12.5 µg/mL", "setting": "[1]; Human immunodeficiency virus 1, 96 h, 12.5 μg/ml, read-out: p24 4 days p.i., % Control", "value": "> 100", "unit": "%"}, {"measurement": "activity at 25 µg/mL", "setting": "[1]; Human immunodeficiency virus 1, 96 h, 25 μg/ml, read-out: p24 4 days p.i., % Control", "value": 43, "unit": "%"}, {"measurement": "activity at 100 µg/mL", "setting": "[1]; Human immunodeficiency virus 1, 96 h, 100 μg/ml, read-out: p24 4 days p.i., % Control", "value": 0, "unit": "%"}, {"measurement": "activity at 200 µM", "setting": "[1]; Human immunodeficiency virus 1, 144 h, read-out: P24 Antigen % Virus Control", "value": 0, "unit": "%"}, {"measurement": "activity at 12 µg/mL", "setting": "[1]; Human immunodeficiency virus 1, 144 h, 12 µg/mL, GB8 in JM cells, day 6 p.i., read-out: P24 Antigen % Virus Control", "value": 100, "unit": "%"}, {"measurement": "activity at 12.5 µg/mL", "setting": "[1]; Human immunodeficiency virus 1, 144 h, 12.5 μg/ml, read-out: p24 6 days p.i., % Control", "value": "> 100", "unit": "%"}, {"measurement": "activity at 25 µg/mL", "setting": "[1]; Human immunodeficiency virus 1, 144 h, 25 µg/mL, GB8 in JM cells, day 6 p.i., read-out: P24 Antigen % Virus Control", "value": 100, "unit": "%"}, {"measurement": "activity at 25 µg/mL", "setting": "[1]; Human immunodeficiency virus 1, 144 h, 25 μg/ml, read-out: p24 6 days p.i., % Control", "value": "> 100", "unit": "%"}, {"measurement": "activity at 50 µg/mL", "setting": "[1]; Human immunodeficiency virus 1, 144 h, 50 µg/mL, GB8 in JM cells, day 6 p.i., read-out: P24 Antigen % Virus Control", "value": 43, "unit": "%"}, {"measurement": "activity at 50 µg/mL", "setting": "[1]; Human immunodeficiency virus 1, 144 h, 50 μg/ml, read-out: p24 6 days p.i., % Control", "value": 0.02, "unit": "%"}, {"measurement": "activity at 100 µg/mL", "setting": "[1]; Human immunodeficiency virus 1, 144 h, 100 µg/mL, GB8 in JM cells, day 6 p.i., read-out: P24 Antigen % Virus Control", "value": 0.01, "unit": "%"}, {"measurement": "activity at 100 µg/mL", "setting": "[1]; Human immunodeficiency virus 1, 144 h, 100 μg/ml, read-out: p24 6 days p.i., % Control", "value": 0.03, "unit": "%"}, {"measurement": "Plaque counts", "setting": "HSV 2; 0.1 μg/ml, first count", "value": 35}, {"measurement": "Plaque counts", "setting": "HSV 2; 0.1 μg/ml, second count", "value": 35}, {"measurement": "Plaque counts", "setting": "HSV 2; 1 μg/ml, first count", "value": 23}, {"measurement": "Plaque counts", "setting": "HSV 2; 1 μg/ml, second count", "value": 31}, {"measurement": "Plaque counts", "setting": "HSV 2; 1 μg/ml, third count", "value": 24}, {"measurement": "Plaque counts", "setting": "HSV 2; 10 μg/ml, first count", "value": 26}, {"measurement": "Plaque counts", "setting": "HSV 2; 10 μg/ml, second count", "value": 19}, {"measurement": "Plaque counts", "setting": "HSV 2; 10 μg/ml, third count", "value": 21}, {"measurement": "Plaque counts", "setting": "HSV 2; 100 μg/ml, first count", "value": 0}, {"measurement": "Plaque counts", "setting": "HSV 2; 100 μg/ml, second count", "value": 0}, {"measurement": "Plaque counts", "setting": "HSV 2; 100 μg/ml, third count", "value": 0}, {"measurement": "activity at 0.1 µg/mL", "setting": "HSV 2; read-out: Mean % VC (plaques)", "value": 63, "unit": "%"}, {"measurement": "activity at 1 µg/mL", "setting": "HSV 2; read-out: Mean % VC (plaques)", "value": 46, "unit": "%"}, {"measurement": "activity at 10 µg/mL", "setting": "HSV 2; read-out: Mean % VC (plaques)", "value": 43, "unit": "%"}, {"measurement": "activity at 100 µg/mL", "setting": "HSV 2; read-out: Mean % VC (plaques)", "value": 0, "unit": "%"}]}
